In patent publication US12071411B2, “Inhibitors of HIF-2α and methods of use thereof” (ARCUS BIOSCIENCES, INC., priority 2021, dated 2024):
Where two headings read alike, the source gives them in different places.

Assays:
HIF-2α [1] = molecular target: T1, HIF-2α (Homo sapiens, UniProt Q99814); experiment: HIF-2α Luciferase Reporter Assay (serum), HRE-luciferase 786-0 cells in 100% human serum; format: cell-based; settings: for IC50: 100% human serum, 786-0 reporter cells, overnight incubation, read-out: Serum Potency
T1 sequence (Q99814 whole entry): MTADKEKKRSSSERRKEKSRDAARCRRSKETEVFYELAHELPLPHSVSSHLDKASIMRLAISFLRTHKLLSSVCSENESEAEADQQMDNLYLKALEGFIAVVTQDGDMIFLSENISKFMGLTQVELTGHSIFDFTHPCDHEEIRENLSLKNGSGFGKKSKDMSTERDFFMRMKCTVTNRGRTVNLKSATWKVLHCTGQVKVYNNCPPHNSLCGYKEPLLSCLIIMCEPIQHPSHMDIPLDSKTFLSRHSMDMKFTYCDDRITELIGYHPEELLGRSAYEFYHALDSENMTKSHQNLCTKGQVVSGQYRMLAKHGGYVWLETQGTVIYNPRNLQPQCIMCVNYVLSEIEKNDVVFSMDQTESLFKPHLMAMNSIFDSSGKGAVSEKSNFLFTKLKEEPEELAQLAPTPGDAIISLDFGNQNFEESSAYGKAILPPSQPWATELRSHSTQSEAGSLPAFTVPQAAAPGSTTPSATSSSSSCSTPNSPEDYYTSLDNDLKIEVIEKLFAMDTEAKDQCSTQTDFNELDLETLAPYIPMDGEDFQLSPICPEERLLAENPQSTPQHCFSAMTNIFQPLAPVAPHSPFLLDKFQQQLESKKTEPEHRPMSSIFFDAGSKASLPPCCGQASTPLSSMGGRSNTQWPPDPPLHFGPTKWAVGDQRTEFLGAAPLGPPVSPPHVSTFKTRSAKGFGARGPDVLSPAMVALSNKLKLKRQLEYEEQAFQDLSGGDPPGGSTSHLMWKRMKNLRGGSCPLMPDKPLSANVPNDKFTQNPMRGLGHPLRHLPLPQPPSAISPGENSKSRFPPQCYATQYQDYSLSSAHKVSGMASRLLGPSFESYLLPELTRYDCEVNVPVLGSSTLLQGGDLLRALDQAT
Procedure: (§1) Generation of HIF-2α Luciferase 786-0 Cell Line:
(§2) Stable cell lines were generated by transducing 786-0 cells (ATCC, CRL-1932) with Cignal Lenti HIF Luc Reporter lentivirus (CLS-007L, Qiagen) according to the manufacturer's guidelines. In brief, 0.3×10^6 786-0 cells were transduced with lentivirus at a multiplicity of infection (MOI) of 25 for 24 hours. After transduction, cells were replenished with fresh RPMI 1640 Medium (Cat. No. 11875085, Thermo Fisher) supplemented with 10% FBS (Cat. No. A3160502, Gibco), 2 mM GlutaMAX™ (Cat. No. 35050-061, Invitrogen) and 100 units of penicillin and 100 μg of streptomycin/mL (Cat. No 15070063, Thermo Fisher) for another 24 hours. Antibiotic selection was performed in cell media containing 4 μg/mL of puromycin. After 7 days of antibiotic selection, stable pools of surviving cells were expanded and used in a luciferase reporter assay.
HIF-2α Luciferase Reporter Assay (Serum):
An HRE-luciferase stable reporter 786-0 cell line was maintained in active culture using RPMI 1640 (GIBCO) media supplemented with 1% penicillin-streptomycin, 1% GlutaMAX™, 10% FBS-One Shot (GIBCO) and 4 ug/ml of puromycin (Invitrogen). On the day of the assay, cells were harvested using StemPro™ Accutase™ cell dissociation reagent (GIBCO) and resuspended at 1.5 million cells per milliliter in Opti-MEM™ (GIBCO). 20 ul/well of the resuspended cells were dispensed into a 384 white tissue culture-treated microplate (Corning) and allowed to incubate at 37° C., 5% CO2 for 3 hours. Compounds were prepared by dispensing 0.8 ul of compound in 100% DMSO into a Greiner plate containing 40 ul/well of 100% human serum (Bioreclamation IVT). After 3 hours, media was removed via centrifugation at 500 RPM for 30 seconds and 30 ul/well of compound diluted in human serum was added. The plate was incubated overnight at 37° C., 5% CO2. The following day, ONE-Glo™ was prepared per vendors instructions. The cell plate was removed from the incubator and the human serum was removed from the plate using centrifugation at 500 RPM for 30 seconds. Following the removal of human serum, 40 ul/well of room temperature Opti-MEM™ was added to the plate and allowed to equilibrate to room temperature for 2 hours. 40 ul/well of ONE-Glo™ reagent was added and allowed to incubate for 10 minutes before reading the luminescence signal on the Envision (PerkinElmer). Data was analyzed using 4-parameter logistic equation to generate IC50.

HIF-2α [2] = molecular target: T1, HIF-2α; experiment: HIF-2α Luciferase Reporter Assay (serum free) in HIF-Luc-786-0 cells; format: cell-based; settings: Opti-MEM, 786-0 reporter cells, 20 hours incubation
Procedure: as §1, §2
HIF-2α Luciferase Reporter Assay (Serum Free):
On day one, 20 uL of HIF-Luc-786-0 cells in Opti-MEM™ (Cat. No. 31985088, Thermo Fisher) were seeded into each well of a 384 well white opaque plate (Corning 3570) and incubated at 37° C. and 5% CO2. Twenty microliters of 2× test compounds in Opti-MEM™ were added to cells after 4 hours of incubation. Final assay conditions comprised 20,000 cells per well in 1% DMSO with test compound concentrations ranging from 50 uM to 0 uM. After 20 hours incubation at 37° C. and 5% CO2, luciferase activity was determined using ONE-Glo™ Luciferase Assay Reagent (E6110, Promega) following the manufacture's recommended procedure. Briefly, 40 uL of ONE-Glo™ luciferase reagents were added to each well and luciferase signals were measured using an Envision 2102 Multilabel Reader. Percentage maximum activity in each test well was calculated based on DMSO (maximum activity) and no cell control wells (baseline activity). The IC50 values of the test compounds were determined from compound dose response curves fitted using a standard four parameter fit equation.

[3] = ratio of IC50 in 100% serum to IC50 in serum free conditions, approximate

Structure (SMILES) | IC50 (HIF-2α [1]) [nM] | Serum Shift (approximate) (HIF-2α [1]; [3]) | IC50 (HIF-2α [2]) [nM] | Serum Shift (approximate) (HIF-2α [1])
O[C@H]1c2c(C(F)(F)F)nn(C3CC4(C3)CC(F)(F)C4)c2[C@@H](F)[C@@H]1F (single isomer, unassigned) [Example 134] | > 1000 | 13 | < 100 | 
O[C@H]1c2c(C(F)(F)F)nn([C@@H]3CCC[C@@H](C(F)(F)F)C3)c2CC1(F)F [Example 80, (4S)-5,5-difluoro-3-(trifluoromethyl)-1-[(1R)-3-(trifluoromethyl)cyclohexyl]-1H,4H,5H,6H-cyclopenta[c]pyrazol-4-ol] | > 1000 | >41 | 100 to 1000 | 
O[C@H]1c2c(C(F)(F)F)nn(CCc3cccc(F)c3)c2CC1(F)F [Example 79, (4S)-5,5-difluoro-1-[2-(3-fluorophenyl)ethyl]-3-(trifluoromethyl)-1H,4H,5H,6H-cyclopenta[c]pyrazol-4-ol] | > 1000 | 13 | < 100 | 
O[C@H]1c2c(C(F)(F)F)nn([C@H]3CCC[C@@H](F)C3)c2CC1(F)F (racemic) [90 DIAST-1, (4S)-5,5-difluoro-1-[(rel-1S,3R)-3-fluorocyclohexyl]-3-(trifluoromethyl)-4,6-dihydrocyclopenta[c]pyrazol-4-ol] | 100 to 1000 | 6 | < 100 | 
O[C@H]1c2c(C(F)(F)F)nn([C@@H]3C[C@@H](F)[C@@H](F)[C@@H](F)C3)c2[C@@H](F)[C@H]1F [Example 140, (4S,5S,6R)-5,6-difluoro-1-[(3R,5S)-3,4,5-trifluorocyclohexyl]-3-(trifluoromethyl)-5,6-dihydro-4H-cyclopenta[c]pyrazol-4-ol] | 100 to 1000 |  | < 100 | 3
O=S1(=O)CC2(CC(n3nc(C(F)(F)F)c4c3CC(F)(F)[C@H]4O)C2)C1 [Example 127, (4S)-1-(2,2-dioxo-2λ^6-thiaspiro[3.3]heptan-6-yl)-5,5-difluoro-3-(trifluoromethyl)-4,6-dihydrocyclopenta[c]pyrazol-4-ol] | > 1000 | 3 | > 1000 | 
CO[C@H]1C[C@@H](n2nc(C(F)(F)F)c3c2CC(F)(F)[C@H]3O)CCC1(F)F (racemic) [Example 109, (4S)-1-[(1S,3S)-4,4-difluoro-3-methoxycyclohexyl]-5,5-difluoro-3-(trifluoromethyl)-1H,4H,5H,6H-cyclopenta[c]pyrazol-4-ol and (4S)-1-[(1R,3R)-4,4-difluoro-3-methoxycyclohexyl]-5,5-difluoro-3-(trifluoromethyl)-1H,4H,5H,6H-cyclopenta[c]pyrazol-4-ol] | 100 to 1000 | 4 | 100 to 1000 | 
C[C@@H](C#N)CCn1nc(C(F)(F)F)c2c1CCC(F)(F)[C@H]2O [Example 99, (2R)-4-[(4S)-5,5-difluoro-4-hydroxy-3-(trifluoromethyl)-6,7-dihydro-4H-indazol-1-yl]-2-methylbutanenitrile] | 100 to 1000 | 3 | < 100 | 
O[C@H]1c2c(C(F)(F)F)nn(C3CCC(F)(F)C3)c2CC1(F)F (mixture of isomers) [Example 54, (4S)-1-(3,3-difluorocyclopentyl)-5,5-difluoro-3-(trifluoromethyl)-4,6-dihydrocyclopenta[c]pyrazol-4-ol] | > 1000 | 5 | 100 to 1000 | 
O[C@H]1c2c(C(F)(F)F)nn(CCCC(F)(F)F)c2CC[C@H]1F [Example 51, (4S,5R)-5-fluoro-1-(4,4,4-trifluorobutyl)-3-(trifluoromethyl)-4,5,6,7-tetrahydroindazol-4-ol] | 100 to 1000 | 3 | 100 to 1000 | 
[O-][S+](CCn1nc(C(F)(F)F)c2c1CCC(F)(F)[C@H]2O)C(F)F (stereo partly drawn) [Example 128, (4S)-1-[2-(difluoromethylsulfinyl)ethyl]-5,5-difluoro-3-(trifluoromethyl)-6,7-dihydro-4H-indazol-4-ol] | > 1000 | 4 | 100 to 1000 | 
O[C@H]1c2c(C(F)(F)F)nn(CCc3cnoc3)c2CC1(F)F [Example 75, (4S)-5,5-difluoro-1-[2-(1,2-oxazol-4-yl)ethyl]-3-(trifluoromethyl)-4,6-dihydrocyclopenta[c]pyrazol-4-ol] | > 1000 | 5 | < 100 | 
C[C@H](C#N)CCn1nc(C(F)(F)F)c2c1C[C@@H](F)[C@H]2O [Example 83, (2S)-4-[(4S,5R)-5-fluoro-4-hydroxy-3-(trifluoromethyl)-1H,4H,5H,6H-cyclopenta[c]pyrazol-1-yl]-2-methylbutanenitrile] | > 1000 | 3 | 100 to 1000 | 
O[C@H]1c2c(C(F)(F)F)nn([C@H]3CC[C@H](F)[C@H](F)C3)c2[C@@H](F)C1(F)F [Example 157, (4S,6R)-1-[(1S,3R,4S)-3,4-difluorocyclohexyl]-5,5,6-trifluoro-3-(trifluoromethyl)-4,6-dihydrocyclopenta[c]pyrazol-4-ol] | < 100 | 3 | < 100 | 
O[C@@H]1c2c(C(F)(F)F)nn([C@H]3CC[C@H](F)[C@H](F)C3)c2[C@H](F)C1(F)F (single isomer, unassigned) [Example 154] | 100 to 1000 | 9 | < 100 | 
O[C@H]1c2c(C(F)(F)F)nn(C3CC4(C3)CC(F)(F)C4)c2[C@H](F)[C@H]1F (single isomer, unassigned) [Example 135] | > 1000 | 12 | < 100 | 
O=S1(=O)CC(Cn2nc(C(F)(F)F)c3c2[C@@H](F)C(F)(F)[C@H]3O)C1 (single isomer, unassigned) [144/145 DIAST-2] | 100 to 1000 | 3 | 100 to 1000 | 
O[C@H]1c2c(C(F)(F)F)nn([C@H]3CC[C@@H](F)[C@@H](F)C3)c2CC1(F)F (racemic) [91 DIAST-2, (4S)-1-[(rel-1S,3S,4R)-3,4-difluorocyclohexyl]-5,5-difluoro-3-(trifluoromethyl)-4,6-dihydrocyclopenta[c]pyrazol-4-ol] | > 1000 | 9 | < 100 | 
O[C@H]1c2c(C(F)(F)F)nn(CCCOC(F)(F)F)c2[C@@H](F)CC1(F)F (single isomer, unassigned) [129/130 DIAST-1] | > 1000 | 18 | 100 to 1000 | 
CO[C@H](CCn1nc(C(F)(F)F)c2c1[C@H](F)C(F)(F)[C@H]2O)C(F)(F)F (single isomer, unassigned) [148/149 DIAST-1] | < 100 | 9 | < 100 | 
O[C@H]1c2c(C(F)(F)F)nn(-c3ccc(Cl)cc3)c2CC1(F)F [Example 116, (4S)-1-(4-chlorophenyl)-5,5-difluoro-3-(trifluoromethyl)-4,6-dihydrocyclopenta[c]pyrazol-4-ol] | > 1000 | 73 | < 100 | 
O[C@H]1c2c(C(F)(F)F)nn([C@H]3CC[C@H](F)[C@H](F)C3)c2[C@@H](F)[C@H]1F (single isomer, unassigned) [141/142 DIAST-2] | 100 to 1000 | 3 | 100 to 1000 | 
O[C@H]1c2c(C(F)(F)F)nn(CC3CCC(F)(F)CC3)c2CC1(F)F [Example 113, (4S)-1-[(4,4-difluorocyclohexyl)methyl]-5,5-difluoro-3-(trifluoromethyl)-1H, 4H, 5H, 6H-cyclopenta[c]pyrazol-4-ol] | > 1000 | 14 | < 100 | 
